According to patent US10138254B2, “Bicyclic compounds as pest control agents” (BAYER CROPSCIENCE AKTIENGESELLSCHAFT, priority 2014, dated 2018):
Where two headings read alike, the source gives them in different places.

Columns and labels:
[1] = log P by HPLC on reversed-phase (C18) columns, OECD Guideline 117; assay type: physicochemical; details: reversed-phase (C18) HPLC column
Experimental: The log P values were determined in accordance with OECD Guideline 117 (EC Directive 92/69/EEC) by HPLC (high-performance liquid chromatography) using reversed-phase (RP) columns (C18), by the following methods: [a] The LC-MS determination in the acidic range is carried out at pH 2.7 with 0.1% aqueous formic acid and acetonitrile (contains 0.1% formic acid) as eluents; linear gradient from 10% acetonitrile to 95% acetonitrile. [b] LC-MS determination in the neutral range is effected at pH 7.8 with 0.001 molar aqueous ammonium hydrogencarbonate solution and acetonitrile as eluents; linear gradient from 10% acetonitrile to 95% acetonitrile. Calibration is carried out using unbranched alkan-2-ones (having 3 to 16 carbon atoms) with known log P values (log P values determined on the basis of the retention times by linear interpolation between two successive alkanones).

[2] = test system: green peach aphid (Myzus persicae); test: Myzus persicae spray test (bell pepper plants); assay type: in vivo; details: application rate 4 ppm, after 6 days, 100% = all aphids killed
Experimental: Myzus persicae—Spray Test Solvent: 7 parts by weight of dimethylformamide Emulsifier: alkylaryl polyglycol ether To produce a suitable active ingredient formulation, 1 part by weight of active ingredient is dissolved with the specified parts by weight of solvent and made up with water containing an emulsifier concentration of 1000 ppm until the desired concentration is attained. To produce further test concentrations, the formulation is diluted with emulsifier-containing water. If the addition of ammonium salts or/and penetrants is required, these are each added in a concentration of 1000 ppm to the formulation solution. Bell pepper plants (Capsicum annuum) severely infested with the green peach aphid (Myzus persicae) are treated by spraying with the active ingredient formulation in the desired concentration. After 6 days, the kill in % is determined. 100% means that all of the aphids have been killed; 0% means that none of the aphids have been killed.

[3] = test system: greenhouse red spider mite (Tetranychus urticae); test: Tetranychus urticae spray test, OP-resistant (bean leaf discs); assay type: in vivo; details: application rate 500 g/ha, after 6 days, 100% = all spider mites killed
Experimental: Tetranychus urticae—Spray Test, OP-Resistant
(§1) Solvent: 78.0 parts by weight of acetone • • 1.5 parts by weight of dimethylformamide
(§2) Emulsifier: alkylaryl polyglycol ether
(§3) To produce a suitable active ingredient formulation, 1 part by weight of active ingredient is dissolved with the specified parts by weight of solvent and made up with water containing an emulsifier concentration of 1000 ppm until the desired concentration is attained. To produce further test concentrations, the formulation is diluted with emulsifier-containing water.
Discs of bean leaves (Phaseolus vulgaris) infested with all stages of the greenhouse red spider mite (Tetranychus urticae) are sprayed with an active ingredient formulation of the desired concentration.
After 6 days, the efficacy in % is determined. 100% means that all the spider mites have been killed; 0% means that no spider mites have been killed.

[4] = test system: green peach aphid (Myzus persicae); test: Myzus persicae spray test (Chinese cabbage leaf discs); assay type: in vivo; details: Myzus persicae, foliar, 144 h, application rate 500 g/ha, after 6 days, 100% = all aphids killed, read-out: efficacy
Experimental: Myzus persicae—Spray Test Solvent: 78 parts by weight of acetone • • 1.5 parts by weight of dimethylformamide Emulsifier: alkylaryl polyglycol ether To produce a suitable active ingredient formulation, 1 part by weight of active ingredient is dissolved with the specified parts by weight of solvent and made up with water containing an emulsifier concentration of 1000 ppm until the desired concentration is attained. To produce further test concentrations, the formulation is diluted with emulsifier-containing water. Discs of Chinese cabbage leaves (Brassica pekinensis) infested by all stages of the green peach aphid (Myzus persicae) are sprayed with an active ingredient formulation of the desired concentration. After 6 days, the efficacy in % is determined. 100% means that all the aphids have been killed; 0% means that no aphids have been killed.

[5] = test system: larvae of the mustard beetle (Phaedon cochleariae); test: Phaedon cochleariae spray test (Chinese cabbage leaf discs); assay type: in vivo; details: application rate 500 g/ha, after 7 days, 100% = all beetle larvae killed
Experimental: Phaedon cochleariae—Spray Test
as §1, §2, §3
After 7 days, the efficacy in % is determined. 100% means that all the beetle larvae have been killed; 0% means that no beetle larvae have been killed.

[6] = acidic range, pH 2.7, 0.1% aqueous formic acid and acetonitrile, read-out: LogP[a]
[7] = neutral range, pH 7.8, 0.001 molar aqueous ammonium hydrogencarbonate and acetonitrile, read-out: logP[b]

Row | chromatographic logP [1, 6] | chromatographic logP [1, 7] | Structure (SMILES) | efficacy (kill) [2] [%] | efficacy [3] [%] | pest or weed control at 500 g/ha [4] [%] | efficacy [5] [%]
1 | 1.91 | 1.86 | Cc1cc(C)c([S+]([O-])CC(F)(F)F)cc1-c1cnc2nc(-c3ccc[n+]([O-])c3)sc2c1 (centres unmarked) [Example 21] | 100 |  |  | 
2 | 3.83 | 3.78 | Cc1cc(F)c(-c2cnc3nc(-c4cccnc4)sc3c2)cc1SCC(F)(F)F [Example 22, 6-{2-Fluoro-4-methyl-5-[(2,2,2-trifluoroethyl)sulphanyl]phenyl}-2-(pyridin-3-yl)[1,3]thiazolo[4,5-b]pyridine] |  | 90 | 100 | 
3 | 1.29 | 1.36 | Cn1c(=O)cnn(-c2cnc3nc(-c4cccnc4)sc3c2)c1=O [Example 39, 4-Methyl-2-[2-(pyridin-3-yl)[1,3]thiazolo[4,5-b]pyridin-6-yl]-1,2,4-triazine-3,5(2H,4H)-dione] |  |  | 90 | 83
